Test system: yeast genes (expressed mRNA)
Assay: DNA chip measurement of expressed mRNA of yeast genes after culture with a toxic chemical substance
Format: cell-based, Saccharomyces cerevisiae S288C
Settings: for level of expressed mRNA in the presence of chemical substance / level in the absence of chemical substance: cultured two hours with the chemical substance; for The level of expressed mRNA in the presence of chemical substance/The level of expressed mRNA in the absence of chemical substance: cultured two hours with substance
Outline: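 S. cerevisiae S288C grown at 25 °C in YPD, exposed in log phase for 2 h to a toxicant at growth-inhibiting, non-lethal concentration. Cy3/Cy5-labelled cDNA from poly(A) mRNA hybridized to whole-genome chip at 65 °C >12 h. Ratio to untreated control, ≥2 significant.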

## Manganese ethylenebis(dithiocarbamate) [(8)]
Yeast gene YDR128W
  level of expressed mRNA in the presence of chemical substance / level in the absence of chemical substance: 1.1
Yeast gene YDR133C
  level of expressed mRNA in the presence of chemical substance / level in the absence of chemical substance: 0.5
Yeast gene YDR250C
  level of expressed mRNA in the presence of chemical substance / level in the absence of chemical substance: 1.1
Yeast gene YDR278C
  level of expressed mRNA in the presence of chemical substance / level in the absence of chemical substance: 0.5
Yeast gene YDR281C
  level of expressed mRNA in the presence of chemical substance / level in the absence of chemical substance: 1.2
Yeast gene YDR330W
  The level of expressed mRNA in the presence of chemical substance/The level of expressed mRNA in the absence of chemical substance: 1.1
Yeast gene YDR366C
  level of expressed mRNA in the presence of chemical substance / level in the absence of chemical substance: 1.1
Yeast gene YDR411C
  The level of expressed mRNA in the presence of chemical substance/The level of expressed mRNA in the absence of chemical substance: 0.9
Yeast gene YDR511W
  The level of expressed mRNA in the presence of chemical substance/The level of expressed mRNA in the absence of chemical substance: 1.7
Yeast gene YDR545W
  The level of expressed mRNA in the presence of chemical substance/The level of expressed mRNA in the absence of chemical substance: 0.6
Yeast gene YEL001C
  The level of expressed mRNA in the presence of chemical substance/The level of expressed mRNA in the absence of chemical substance: 1.2
Yeast gene YER004W
  The level of expressed mRNA in the presence of chemical substance/The level of expressed mRNA in the absence of chemical substance: 1.1
Yeast gene YER035W
  The level of expressed mRNA in the presence of chemical substance/The level of expressed mRNA in the absence of chemical substance: 1.2
Yeast gene YER079W
  The level of expressed mRNA in the presence of chemical substance/The level of expressed mRNA in the absence of chemical substance: 1.4
Yeast gene YER106W
  The level of expressed mRNA in the presence of chemical substance/The level of expressed mRNA in the absence of chemical substance: 1.2
Yeast gene YER158C
  The level of expressed mRNA in the presence of chemical substance/The level of expressed mRNA in the absence of chemical substance: 0.9
Yeast gene YER163C
  The level of expressed mRNA in the presence of chemical substance/The level of expressed mRNA in the absence of chemical substance: 1.4
Yeast gene YER175C
  The level of expressed mRNA in the presence of chemical substance/The level of expressed mRNA in the absence of chemical substance: 1.1
Yeast gene YFL006W
  The level of expressed mRNA in the presence of chemical substance/The level of expressed mRNA in the absence of chemical substance: 1.0
Yeast gene YFL010C
  The level of expressed mRNA in the presence of chemical substance/The level of expressed mRNA in the absence of chemical substance: 1.0
Yeast gene YFL024C
  The level of expressed mRNA in the presence of chemical substance/The level of expressed mRNA in the absence of chemical substance: 0.9
Yeast gene YFL032W
  The level of expressed mRNA in the presence of chemical substance/The level of expressed mRNA in the absence of chemical substance: 0.4
Yeast gene YFR026C
  level of expressed mRNA in the presence of chemical substance / level in the absence of chemical substance: 1.3
Yeast gene YGL037C
  The level of expressed mRNA in the presence of chemical substance/The level of expressed mRNA in the absence of chemical substance: 1.2
Yeast gene YGL047W
  The level of expressed mRNA in the presence of chemical substance/The level of expressed mRNA in the absence of chemical substance: 1.1
Yeast gene YGL053W
  The level of expressed mRNA in the presence of chemical substance/The level of expressed mRNA in the absence of chemical substance: 1.2
Yeast gene YGL088W
  level of expressed mRNA in the presence of chemical substance / level in the absence of chemical substance: 0.5
Yeast gene YGL121C
  The level of expressed mRNA in the presence of chemical substance/The level of expressed mRNA in the absence of chemical substance: 3.0
Yeast gene YGL199C
  The level of expressed mRNA in the presence of chemical substance/The level of expressed mRNA in the absence of chemical substance: 0.7
Yeast gene YGR038W
  level of expressed mRNA in the presence of chemical substance / level in the absence of chemical substance: 0.7
Yeast gene YGR101W
  The level of expressed mRNA in the presence of chemical substance/The level of expressed mRNA in the absence of chemical substance: 0.8
Yeast gene YGR110W
  The level of expressed mRNA in the presence of chemical substance/The level of expressed mRNA in the absence of chemical substance: 1.5
Yeast gene YGR130C
  The level of expressed mRNA in the presence of chemical substance/The level of expressed mRNA in the absence of chemical substance: 0.9
Yeast gene YGR139W
  level of expressed mRNA in the presence of chemical substance / level in the absence of chemical substance: 0.6
Yeast gene YGR154C
  The level of expressed mRNA in the presence of chemical substance/The level of expressed mRNA in the absence of chemical substance: 1.7
Yeast gene YGR221C
  The level of expressed mRNA in the presence of chemical substance/The level of expressed mRNA in the absence of chemical substance: 1.1
Yeast gene YGR243W
  level of expressed mRNA in the presence of chemical substance / level in the absence of chemical substance: 1.3
Yeast gene YGR293C
  level of expressed mRNA in the presence of chemical substance / level in the absence of chemical substance: 1.3
Yeast gene YHL006C
  level of expressed mRNA in the presence of chemical substance / level in the absence of chemical substance: 1.1
Yeast gene YHR095W
  level of expressed mRNA in the presence of chemical substance / level in the absence of chemical substance: 1.0
Yeast gene YHR105W
  level of expressed mRNA in the presence of chemical substance / level in the absence of chemical substance: 1.0
Yeast gene YHR138C
  The level of expressed mRNA in the presence of chemical substance/The level of expressed mRNA in the absence of chemical substance: 1.4
Yeast gene YHR181W
  level of expressed mRNA in the presence of chemical substance / level in the absence of chemical substance: 0.9
Yeast gene YHR199C
  The level of expressed mRNA in the presence of chemical substance/The level of expressed mRNA in the absence of chemical substance: 1.0
Yeast gene YIL023C
  The level of expressed mRNA in the presence of chemical substance/The level of expressed mRNA in the absence of chemical substance: 0.7
Yeast gene YIL041W
  The level of expressed mRNA in the presence of chemical substance/The level of expressed mRNA in the absence of chemical substance: 0.9
Yeast gene YIL087C
  The level of expressed mRNA in the presence of chemical substance/The level of expressed mRNA in the absence of chemical substance: 1.1
Yeast gene YIL127C
  level of expressed mRNA in the presence of chemical substance / level in the absence of chemical substance: 1.2
Yeast gene YJL017W
  level of expressed mRNA in the presence of chemical substance / level in the absence of chemical substance: 1.0
Yeast gene YJL037W
  level of expressed mRNA in the presence of chemical substance / level in the absence of chemical substance: 1.2
Yeast gene YJL057C
  The level of expressed mRNA in the presence of chemical substance/The level of expressed mRNA in the absence of chemical substance: 1.5
Yeast gene YJL066C
  The level of expressed mRNA in the presence of chemical substance/The level of expressed mRNA in the absence of chemical substance: 0.8
Yeast gene YJL082W
  The level of expressed mRNA in the presence of chemical substance/The level of expressed mRNA in the absence of chemical substance: 0.9

Source: US20100041089A1, “IMPROVED METHOD FOR DETECTING CHEMICAL […]” (priority 2006, published 2010)
